This data set is described as follows: blood bilirubin in subjects with a UGT1A1 mutation receiving COMPOUND 1. Format: in vivo, human. The text has this: All toxicity≥Grade 3 not due to underlying AML or complications of the disease or myelosuppressive treatment, with the exception of ≥Grade 3 blood bilirubin increases in subjects with a UGT1A1 mutation receiving COMPOUND 1.

For the molecule `CC(C)(O)CNc1nc(Nc2ccnc(C(F)(F)F)c2)nc(-c2cccc(C(F)(F)F)n2)n1` [COMPOUND 1, 2-methyl-[(4-[6-(trifluoromethyl)pyridin-2-yl]-6-{[2-(trifluoromethyl)pyridin-4-yl]amino}-1,3,5-triazin-2-yl)amino]propan-2-ol], the blood bilirubin result was “isolated blood bilirubin increases have been seen”.
